Results published in patent US20230212202A1, “TREATMENT OF MGMT DEFICIENT CANCER WITH 2-FLUOROETHYL-SUBSTITUTED NITROSOUREAS AND OTHER COMPOUNDS” (YALE UNIVERSITY, priority 2021, published 2023).
Values joined by “and” are separate entries in the source; they are usually repeats but may differ in a detail not shown here. Equal values may be shown once. Read-outs that look alike come from different tables or passages of the source. Each block holds one compound with its values, some of them ahead of it.

Assays:
[1] = tested on: LN229 human brain glioblastoma cells MGMT- MMR+; assay: Anticancer activity towards LN229 cells (Example 15); assay type: cell-based; details: read-out: MGMT -MMR + Activity
Method: (§1) LN229 quad cells were maintained in Dulbecco’s Modified Eagle Medium (DMEM) supplemented with 10% fetal bovine serum. Cells were plated into sterile black with glass bottom 384-well plates (Cellvis) at a concentration of 1,000 cells/well (20 µL total volume) using a MultiDrop (Thermo Fisher). Then, assay plates were centrifuged at 300 rpm for 2 seconds and incubated overnight in a 37° C. 5% CO2 incubator. Compounds were prepared as 100 mM stocks in DMSO and stored protected from light at -20′C until use. Prior to compound addition, the stock solutions of compound were diluted two-fold serially in DMSO from 100 mM down to 0.05 mM in a 384-well Source plate. Vehicle control wells containing DMSO and positive control wells containing 10 mM bortezomib were also added to the Source plate. An aliquot in the amount of 40 nL of compound stock solution or DMSO vehicle was transferred from the source plate to the cell assay plate using an Echo Acoustic dispense (Beckman). Three replicate dilution curves of each compound were run on each assay plate. An aliquot in the amount of 120 nL of a 10 mM bortezomib solution was transferred to the positive control wells resulting in a final concentration of 60 µM. The final concentration of compounds ranged from 200 µM to 0.1 µM (12-point, 2-fold dilution dose response curve), and the final DMSO concentration was 0.2%.
(§2) Assay plates were centrifuged at 500 rpm for 2 seconds and incubated for 120 hours at 37° C. in a humidified 5% CO2 incubator. Following incubation, cells were fixed with 4% paraformaldehyde and stained with DAPI for nuclei visualization. The images were acquired on the InCell 2200 high content imager (GE, now […]), and quantified using InCell Analyzer image analysis software. Z prime factor, signal-to-background and coefficient of variation were calculated for each assays plate using mean and standard deviation values of the negative (vehicle) and positive (bortezomib) control wells to ensure assay robustness. Raw cell count data for test compounds was normalized to percent viability relative to the DMSO vehicle control. Data was plotted in GraphPad Prism using a variable slope 4-parameter fit.

[2] = tested on: LN229 human brain glioblastoma cells MGMT+ MMR-; assay: as above; assay type: cell-based; details: read-out: MGMT+ MMR -Activity
Method: as §1, §2

[3] = tested on: LN229 human brain glioblastoma cells MGMT+ MMR+; assay: as above; assay type: cell-based; details: read-out: MGMT+ MMR+ Activity
Method: as §1, §2

[4] = tested on: LN229 human brain glioblastoma cells MGMT- MMR-; assay: as above; assay type: cell-based; details: read-out: MGMT -MMR-Activity
Method: as §1, §2

LN229 MGMT-/MMR- cells [5] = assay: Short-term cell viability assay; assay type: cell-based, human; details: LN229 MGMT-/MMR- cells
[6] = tested on: LN229 MGMT+/-, MMR+/- cells; assay: Short-term cell viability assay, four isogenic LN229 glioblastoma cell lines; assay type: cell-based, human
[7] = 37° C., pH 7.4; cited from earlier work
[8] = tested on: LN229 MGMT+/-, MMR+/- cells; assay: Clonogenic survival assay; assay type: cell-based, human
Method: Clonogenic Cell Survival Assay. Cells were trypsinized, washed, counted, and diluted in a medium containing various concentrations of drug. They were then immediately seeded in six-well plates in triplicate at three-fold dilutions, ranging from 9000 to 37 cells per well. Depending on colony size, these plates were kept in the incubator for 10 to 14 days. After incubation, colonies were washed in phosphate-buffered saline (PBS), stained with crystal violet, counted, and quantified.

[9] = tested on: DLD1 BRCA2+/- and BRCA2-/- cells; assay: Short-term viability assay with or without O6BG; assay type: cell-based, human; details: for sensitivity of BRCA2-/- cells: DLD1, ±O6BG; for therapeutic index (TI), ratio of IC50 values in MGMT+/BRCA2+ cells compared to MGMT-/BRCA2- cells: DLD1 isogenic model
LN229 MGMT-/MMR+ cells = assay: IR alkaline comet assay; assay type: cell-based, human
[10] = tested on: PEO4 (BRCA2+) and PEO1 (BRCA2-/-) cells; assay: Short-term viability assay with or without O6BG; assay type: cell-based, human; details: for therapeutic index (TI): PEO1/4 model; for sensitivity of BRCA2-/- cells: PEO1/PEO4, ±O6BG
[11] = tested on: PD20 cells, FANCD2-/- or +FANCD2; assay: Short-term viability assay; assay type: cell-based, human; details: PD20 FANCD2-/- vs +FANCD2
[12] = tested on: linearized pUC19 plasmid DNA; assay: Melting temperature assay; assay type: biochemical; details: 100 or 500 µM, 3 h
LN229 MGMT-/MMR- cells [13] = assay: IR alkaline comet assay; assay type: cell-based, human; details: 200 µM, 2-24 h
[14] = tested on: DLD1 MSH6-deficient cells; assay: Short-term viability assay with or without O6BG; assay type: cell-based, human; details: with or without O6BG-induced MGMT depletion
Excerpt: (§3) Short-term Cell Viability Assay.

[15] = tested on: HCT116 MLH1-/- cells or HCT116 +Chr3 cells; assay: Short-term viability assay with or without O6BG; assay type: cell-based, human
Excerpt: as §3

[16] = tested on: LN229 MGMT-/MMR- flank tumors; assay: Xenograft flank tumor model; assay type: in vivo, mouse; details: 5 mg/kg MWF × 3 weeks
[17] = Homo sapiens, LN-229, 120 hours

SMILES: O=NN(CCF)C(=O)NCCCl
IC50 ([1]; Homo sapiens, LN-229, 120 h): 50 to 90 µM | IC50 ([2]; Homo sapiens, LN-229, 120 h): > 90 µM | IC50 ([3]; Homo sapiens, LN-229, 120 h): > 90 µM | IC50 ([4]; Homo sapiens, LN-229, 120 h): < 50 µM

IC50 [1, 17]: < 50 µM | IC50 [2, 17]: 50 to 90 µM | IC50 [3, 17]: > 90 µM | IC50 [4, 17]: < 50 µM
SMILES: O=NN(CCF)C(=O)NC1CCCCC1

SMILES: CCOP(=O)(OCC)C(C)NC(=O)N(CCF)N=O (centres unmarked)
IC50 ([1]; 120 hours): > 90 µM | IC50 ([2]; 120 hours): > 90 µM | IC50 ([3]; 120 hours): > 90 µM | IC50 ([4]; 120 hours): < 50 µM

SMILES: Cc1ncc(CNC(=O)N(CCF)N=O)c(N)n1
IC50 [1, 17]: > 90 µM | IC50 [2, 17]: > 90 µM | IC50 [3, 17]: > 90 µM | IC50 ([4]; Homo sapiens, LN-229, 120 h): < 50 µM

SMILES: CC(F)CN/N=N/c1[nH]cnc1C(N)=O (centres unmarked) [Compound 10]
potency in MGMT-/MMR- cells (LN229 MGMT-/MMR- cells [5]): reduced potency

SMILES: NC(=O)c1nc[nH]c1/N=N/NCCCF [Compound 11]
activity in the four LN229 cell lines ([6]; MGMT+/-, MMR+/-): low activity in all four cell lines

SMILES: Nc1nc(OCCF)c2ncn([C@@H]3O[C@H](CO)[C@@H](O)[C@H]3O)c2n1 [Compound S1, O^6-(2-fluoroethyl)guanosine]
half-life of hydrolysis [7]: 18.5 h and ~ 18.5 h

SMILES: Nc1nc(OCCCl)c2ncn([C@@H]3O[C@H](CO)[C@@H](O)[C@H]3O)c2n1 [Compound S4, O^6-(2-chloroethyl)guanosine]
half-life of hydrolysis [7]: ~ 18 min

SMILES: O=NN(CCCl)C(=O)NC1CCCCC1 [Lomustine, lomustine, reference compound]
clonogenic survival, MGMT+ cells ([8]; LN229 MGMT+ cells): cytotoxic to MGMT+ cells | clonogenic survival, MGMT- cells ([8]; LN229 MGMT- cells, MMR+/-): effective in MMR- cells

SMILES: CO[C@@]12[C@H](COC(N)=O)C3=C(C(=O)C(C)=C(N)C3=O)N1C[C@@H]1N[C@@H]12 [MMC, Mitomycin C]
sensitivity of BRCA2-/- cells [9]: hypersensitivity of DLD1 BRCA2-/- cells to crosslinking agents independent of MGMT depletion | therapeutic index (TI), ratio of IC50 values in MGMT+/BRCA2+ cells compared to MGMT-/BRCA2- cells [9]: 26 fold | IR-induced comet tail (ICL detection) (LN229 MGMT-/MMR+ cells; 0.1 µM, 24 h): partial reduction in the IR-induced comet tail | IR-induced comet tail (ICL detection) (LN229 MGMT-/MMR+ cells; 50 µM, 2 h): completely abolished the IR-induced comet tail | comet tailing in the absence of IR (LN229 MGMT-/MMR+ cells; TMZ, KL-50 200 µM, MMC 0.1 or 50 µM): did not | therapeutic index (TI) [10]: 7 fold | sensitivity of BRCA2-/- cells [10]: hypersensitivity of PEO4 BRCA2-/-cells to crosslinking agents independent of MGMT depletion | sensitivity of FANCD2-deficient cells [11]: hypersensitivity to crosslinking agents in FANCD2-/-cells

SMILES: COS(C)(=O)=O [MMS, Methylmethane sulfonate, reference compound]
DNA melting temperature [12]: comparable changes in measured DNA melting temperature

SMILES: NC(=O)c1ncn2c(=O)n(CCCl)nnc12 [MTZ, mitozolomide, reference compound]
DNA damage in unirradiated samples, time course (LN229 MGMT-/MMR- cells [13]; 0 Gy): maximal damage at 2 h | DNA mobility after IR, time course (LN229 MGMT-/MMR- cells [13]; 10 Gy): reduced DNA mobility within 2 h | selectivity for MGMT-deficient cells ([6]; LN229, listed as 12a): ~ 7 fold

SMILES: Cn1nnc2c(C(N)=O)ncn2c1=O [TMZ, temozolomide, reference compound]
IC50 (LN229 MGMT-/MMR- cells [5]; Homo sapiens, LN-229, read-out: IC50): 838 µM | activity in DLD1 cells [14]: inactive | activity in HCT116 cells [15]: inactive | tumor growth ([16]; P.O.): no efficacy | median OS ([16]; Kaplan-Meier): 10 weeks

SMILES: N.N.[Cl][Pt][Cl] [cisplatin]
sensitivity of BRCA2-/- cells [9]: hypersensitivity of DLD1 BRCA2-/- cells to crosslinking agents independent of MGMT depletion | therapeutic index (TI), ratio of IC50 values in MGMT+/BRCA2+ cells compared to MGMT-/BRCA2- cells [9]: 42 fold | therapeutic index (TI) [10]: 13 fold | sensitivity of BRCA2-/- cells [10]: hypersensitivity of PEO4 BRCA2-/-cells to crosslinking agents independent of MGMT depletion | sensitivity of FANCD2-deficient cells [11]: hypersensitivity to crosslinking agents in FANCD2-/-cells
